In patent US8927246B2, “Method to increase the production of extracellular polymeric substances (EPS) in a Acidithiobacillus ferrooxidans culture by the inhibition of enzymes of tricarboxilic acid cycle” (Universidad de Chile, priority 2010, dated 2015):

How the values were obtained:
Aconitase (EC 4.2.1.3) = details: cited from earlier work
[1] = system: Acidithiobacillus ferrooxidans strain Wenelen; test: Batch culture of A. ferrooxidans Wenelen with FIC versus control: biomass and EPS production; format: cell-based; details: for [EPS] ajusted: fitted curve
Method: To compare biomass and EPS production in a Acidithiobacillus ferrooxidans, a culture with FIC and a control one, without FIC, were conducted.
Both cultures were carried in 1 L of a 9K medium described in Table 2, with the addition of 30 g/L of ferrous sulfate, with pH set at 1.8, agitation of 250 rpm and air flux of 1 VVM.
In both cultures, the same initial biomass concentration of 1*10^7 cell/mL was inoculated. In sample 1, 80 μM of FIC was added. Cultures were kept for 288 hours and EPS and biomass concentration was periodically measured. Afterwards, specific productivity of EPS was calculated.

[2] = 80 μM FIC, from hours 48 to 120

Substance: fluoroisocitrate [FIC]
- inhibition of aconitase (Aconitase (EC 4.2.1.3)): specifically inhibited
- amount of EPS per cell (pg EPS/cell) relative to control ([1]; 80 μM FIC, 192 hours): 18 times
- EPS yield (pg EPS/cell) relative to control sample ([1]; 80 μM FIC, at 120 hours of culture): 2 times
- biomass relative to control sample ([1]; 80 μM FIC, between 120 and 288 hours): lower by one magnitude order
- difference in growth rate or EPS production versus control sample ([1]; 80 μM FIC, first 48 hours): no significant differences
- EPS production [1, 2]: strong increase
- biomass [1, 2]: remains practically constant
- EPS ([1]; 80 μM FIC, time 0.0001 hours): 28 mg/L
- cel/ml (biomass concentration) ([1]; 80 μM FIC, time 0.0001 hours): 4.69E+06 cel/ml
- pg EPS/cel ([1]; 80 μM FIC, time 0.0001 hours): 5.97 pg EPS/cel
- [EPS] ajusted ([1]; 80 μM FIC, time 0.0001 hours): 28.00 mg/L
- EPS ([1]; 80 μM FIC, time 24 hours): 33.5 mg/L
- cel/ml (biomass concentration) ([1]; 80 μM FIC, time 24 hours): 7.81E+06 cel/ml
- pg EPS/cel ([1]; 80 μM FIC, time 24 hours): 4.29 pg EPS/cel
- [EPS] ajusted ([1]; 80 μM FIC, time 24 hours): 36.49 mg/L
- EPS ([1]; 80 μM FIC, time 48 hours): 74 mg/L
- cel/ml (biomass concentration) ([1]; 80 μM FIC, time 48 hours): 6.66E+07 cel/ml
- pg EPS/cel ([1]; 80 μM FIC, time 48 hours): 1.11 pg EPS/cel
- [EPS] ajusted ([1]; 80 μM FIC, time 48 hours): 109.28 mg/L
- EPS ([1]; 80 μM FIC, time 120 hours): 341 mg/L
- cel/ml (biomass concentration) ([1]; 80 μM FIC, time 120 hours): 7.69E+07 cel/ml
- pg EPS/cel ([1]; 80 μM FIC, time 120 hours): 4.44 pg EPS/cel
- [EPS] ajusted ([1]; 80 μM FIC, time 120 hours): 306.36 mg/L
- EPS ([1]; 80 μM FIC, time 144 hours): 350 mg/L
- cel/ml (biomass concentration) ([1]; 80 μM FIC, time 144 hours): 4.16E+07 cel/ml
- pg EPS/cel ([1]; 80 μM FIC, time 144 hours): 8.42 pg EPS/cel
- [EPS] ajusted ([1]; 80 μM FIC, time 144 hours): 318.74 mg/L
- EPS ([1]; 80 μM FIC, time 168 hours): 372.5 mg/L
- cel/ml (biomass concentration) ([1]; 80 μM FIC, time 168 hours): 3.41E+07 cel/ml
- pg EPS/cel ([1]; 80 μM FIC, time 168 hours): 10.94 pg EPS/cel
- [EPS] ajusted ([1]; 80 μM FIC, time 168 hours): 324.73 mg/L
- EPS ([1]; 80 μM FIC, time 192 hours): 348.5 mg/L
- cel/ml (biomass concentration) ([1]; 80 μM FIC, time 192 hours): 1.41E+07 cel/ml
- pg EPS/cel ([1]; 80 μM FIC, time 192 hours): 24.78 pg EPS/cel
- [EPS] ajusted ([1]; 80 μM FIC, time 192 hours): 327.88 mg/L
- EPS ([1]; 80 μM FIC, time 216 hours): 315 mg/L
- cel/ml (biomass concentration) ([1]; 80 μM FIC, time 216 hours): 1.38E+07 cel/ml
- pg EPS/cel ([1]; 80 μM FIC, time 216 hours): 22.91 pg EPS/cel
- [EPS] ajusted ([1]; 80 μM FIC, time 216 hours): 329.65 mg/L
- EPS ([1]; 80 μM FIC, time 288 hours): 305 mg/L
- cel/ml (biomass concentration) ([1]; 80 μM FIC, time 288 hours): 1.94E+07 cel/ml
- pg EPS/cel ([1]; 80 μM FIC, time 288 hours): 15.74 pg EPS/cel
- [EPS] ajusted ([1]; 80 μM FIC, time 288 hours): 331.83 mg/L
- effect on EPS and biomass production in culture ([1]; A. ferroxidans culture): enhanced EPS production in detriment of biomass production
- EPS specific productivity versus control ([1]; FIC cultures, after the first 30 hours): significant increase
- increase in EPS specific productivity versus control ([1]; FIC cultures, around the 50 hours of culture, exponential growth phase): ~30%
